# Data from PMC2605449, “Modification of carbonic anhydrase II with acetaldehyde, the first metabolite of ethanol, leads to decreased enzyme activity” (BMC Biochemistry, 2008).
# Target: T1, recombinant human CA II (carbonic anhydrase isozyme II) (Homo sapiens, UniProt P00918, S2A)
# T1 construct: gene CA2; recombinant in E. coli, full length, initiator Met removed, second residue Ser changed to Ala by cloning
# Experiment: end-point titration (Maren) with spectrophotometric colour determination
# Assay type: biochemical
# Details: covalent; pretreated […] h at […] °C, […] NaBH3(CN) added after […] h (N-ethyllysine adducts); CO2 substrate, ice-cold
smiles,measurement,value
CC=O [acetaldehyde],% reduction in activity at 100 mM,23.7%
